Experimental data: publication PMC5570892, “Indole-based perenosins as highly potent HCl transporters and potential anti-cancer agents” (Scientific Reports, 2017)
Several values for one entry are separate records, joined by “and”; a condition that tells them apart may be missing. Equal values may be shown once. Read-outs that look alike come from different tables or passages of the source.

Experiments:
[1] = NMDG-Cl assay by HPTS (H^+/Cl^− symport); type: biochemical; settings: for EC50 NMDG-Cl (by HPTS): H^+/Cl^− symport, no gramicidin or oleic acid; for EC50 (Gra) NMDG-Cl (by HPTS): in the presence of gramicidin 0.1 mol%; for EC50 (OA) NMDG-Cl (by HPTS): in the presence of oleic acid 2 mol%
Experimental: The selectivity for Cl^−>H^+/OH^− transport of the perenosins was quantified using a modified NMDG-Cl assay. Unilamellar vesicles loaded with HPTS (1 mM) and N-methyl-D-glucamine chloride (NMDG-Cl) (100 mM), buffered to pH 7 with HEPES (10 mM) were prepared. Free base NMDG (0.5 M) was added increasing the extravesicular solution to pH 8, and the dissipation of this gradient following the addition of receptors was monitored. Dissipation of pH gradient indicates H^+/Cl^− symport (or the functionally equivalent OH^−/Cl^− exchange) mediated by perenosins. Gramicidin D (Gra) is a proton channel added to facilitate H^+ transport. The addition of oleic acid (OA), a naturally occurring fatty acid found in cell membranes, allowed the investigation of the enhancement in H^+/Cl^− symport, in the presence of oleic acid. Anion transporters can assist the fatty acid flip-flop mechanism by taking on the role of a flippase for fatty acid anions via binding to the anionic carboxylate head group, masking the charge and allowing rapid passage of the head group through the lipid bilayer. This in turn accelerates the natural proton transport mediated by fatty acids in biological membranes.
For all cases EC50 values were obtained from dose-response experiments and subsequent Hill analysis (see Supplementary Information). Chloride selectivity was then quantified to give a selectivity factor (SG), shown in Table 2, using the ratio of the EC50 values. From the previous cationophore coupled assays, it was evident that the capability of perenosins to facilitate electrogenic chloride transport is negligible, therefore an absence in selectivity for Cl^−>H^+/OH^− was expected. […] FOA values for the overall H^+/Cl^− cotransport rate were calculated for compounds 1d and 2–6 in the presence of OA and are also shown in Table 2. […] In the presence of fatty acids, an alternative pathway that involves the diffusion of the fatty acid complex and free fatty acids could replace this step. […] This may be likely due to the competitive binding of the receptors to the carboxylate head group so inhibiting chloride binding and transport.
S10.8. General Procedure for the HPTS Assay
Unilamellar vesicles were prepared using previously reported literature procedures16. A lipid film of POPC (1-palmitoyl-2-oleoyl-sn-glycero-3-phosphocholine) was prepared from a chloroform solution under reduced pressure and then dried under vacuum for 4 or more hours. The lipid film was rehydrated by vortexing with an internal solution containing HPTS (1 mM). The lipid suspension was then subjected to 9 freeze-thaw cycles and left to rest at room temperature for 30 minutes. After this, the suspension was extruded 25 times through a 200 nm polycarbonate membrane resulting in unilamellar vesicles of a mean diameter of 200 nm. The un-encapsulated HPTS was removed by size exclusion chromatography using a sephadex G-25 column and an external solution eluent that does not contain HPTS. The lipid solution obtained after dialysis was diluted to a standard volume (usually 10 mL) with the external buffered solution to obtain a lipid stock of known concentration.
In each experiment identical internal and external solutions were used with various salts (NMDG -Cl or sodium gluconate) buffered with HEPES (10 mM) to pH 7.0, and are detailed below.
The lipid stock was diluted with the external buffer solution to a standard volume (2.5 mL), to afford a solution with a lipid concentration of 0.1 mM. The compounds were added as a DMSO solution (10 μL) and when an assisting ionophore (gramicidin) or oleic acid (a naturally occurring monosaturated fatty acid) was used this was also added as a DMSO solution (5 μL, 0.1 mol% or 2 mol% respectively (with respect to lipid)). To start the experiment, after the addition of the compounds, a base pulse (25 μL, of NMDG or TBAOH (0.5 M)) was spiked in to generate a pH gradient across the membrane. […]

MDA-MB-231 cells = experiment: MTT cell viability assay; type: cell-based; settings: Homo sapiens, error from three repeats in brackets
Experimental: Herein, we carried out further in vitro studies at the University of Barcelona for the full library of perenosins. Single dose screening for cell viability using the methylthiazoletetrazolium (MTT) colorimetric assay over five different cell lines (cancer cells MCF-7, MDA-MB-231, A549 and SW620, and non-cancerous human cells MCF-10A) was conducted.
While perenosin 5, with pentyl substituent at R3, has similar cell viability effects as 1d, bis-indole perenosin 7 with pentyl substituent at R1 has a moderate degree of late onset by a factor of 7.
S11.1 Cell Lines and Culture Conditions
The human cell lines were obtained from the American Type Culture Collection (ATCC, Manassas VA). Breast adenocarcinoma MDA-MB-231 and MCF-7 cells were maintained in DMEM:F12 media (1:1; Biological Industries, Beit Haemek, Israel), and 10 µg/ml insulin and 50 µM sodium pyruvate from Sigma-Aldrich Chemical Co. (St. Louis, MO) were added to MCF-7 cells. Lung adenocarcinoma A549 and colorectal adenocarcinoma SW620 cells were cultured in DMEM media. All were supplemented with 10% foetal bovine serum (FBS; Invitrogen-Life Technologies, Carlsbad, CA) and 100 U/mL penicillin, 100 µg/mL streptomycin and 2 mM L-glutamine, all from Biological Industries.
Mammary epithelial MCF-10A cells were maintained in DMEM:F12 media supplemented with 5% horse serum (Life Technologies), 20 ng/ml EGF, 0.5 µg/ml Hydrocortisone, 100 ng/ml Cholera toxin, 10 µg/ml insulin all from Sigma-Aldrich and 100 U/ml penicillin, 100 µg/ml streptomycin, and 2 mM L- glutamine (Biological Industries). Cells were grown at 37 °C under a 5% CO2 atmosphere.
S11.2 Cell Viability Assays
Cell viability was evaluated using the methylthiazoletetrazolium (MTT) colorimetric assay. Cancer cells (MCF-7, MDA-MB-231, A549 and SW620) or non-cancerous human cells MCF-10A cells were harvested (10^4 cells/well) in 96-well plates in a final volume of 100 µl and allowed to grow overnight.
After 24 h, vehicle solution (DMSO) or experimental compounds were added at 10 µM (single point experiment) or at different ranging concentrations (0.8-100 µM) to the assay plate and were incubated for 24 or 72 h. Then, 10 µl of MTT (5 mg/ml; Sigma-Aldrich) were added and the plates were incubated for 4 h at 37°C. 100 µl of DMSO (Sigma-Aldrich) were added to dissolve crystals and the reading was taken spectrophotometrically at 570 nm using a multi-well plate reader (Multiskan FC, Thermo Scientific, Waltham, MA, USA). Cell viability and inhibitory concentration (IC) values were obtained using GraphPad Prism v5.0 (Graphpad Software, San Diego, CA, USA). All data are shown as the mean value ± standard deviation (S.D.) of three independent experiments.

[2] = MDA-MB-231, 24 h exposure, read-out: IC50 (24 h)
[3] = MDA-MB-231, 72 h exposure, read-out: IC50 (72 h)

CCCCCc1cc2cc(C)cc(/N=C/c3[nH]c(C)cc3C)c2[nH]1 [Perenosin 2]
EC50 NMDG-Cl (by HPTS) [1]: 0.00062 mol%
EC50 (Gra) NMDG-Cl (by HPTS) [1]: 0.00037 mol%
EC50 (OA) NMDG-Cl (by HPTS) [1]: 0.00085 mol%
IC50 (MDA-MB-231 cells; [2]): > 100 µM
IC50 (MDA-MB-231 cells; [3]): 11.3 µM

CCCCCc1cc2cc(C)cc(/N=C/c3[nH]c4ccccc4c3C)c2[nH]1 [Perenosin 8]
IC50 (MDA-MB-231 cells; [2]): > 100 µM
IC50 (MDA-MB-231 cells; [3]): 38 µM

CCCc1cc2cc(C)cc(/N=C/c3[nH]c(C)cc3C)c2[nH]1 [Perenosin 4]
EC50 NMDG-Cl (by HPTS) [1]: 0.00069 mol%
EC50 (Gra) NMDG-Cl (by HPTS) [1]: 0.00038 mol%
EC50 (OA) NMDG-Cl (by HPTS) [1]: 0.00008 mol%
IC50 (MDA-MB-231 cells; [2]): > 100 µM
IC50 (MDA-MB-231 cells; [3]): 9.2 µM

CCCCCc1cc(/N=C/c2[nH]c3ccccc3c2C)c2[nH]ccc2c1 [Perenosin 7]
IC50 (MDA-MB-231 cells; [2]): 73.8 µM
IC50 (MDA-MB-231 cells; [3]): 11 µM

CCCCCc1cc2cc(C(F)(F)F)cc(/N=C/c3[nH]c(C)cc3C)c2[nH]1 [Perenosin 3]
EC50 NMDG-Cl (by HPTS) [1]: 0.01151 mol%
EC50 (Gra) NMDG-Cl (by HPTS) [1]: 0.00879 mol%
EC50 (OA) NMDG-Cl (by HPTS) [1]: 0.04912 mol%
IC50 (MDA-MB-231 cells; [2]): > 100 µM
IC50 (MDA-MB-231 cells; [3]): 9.5 µM

CCCCCc1cc2cc(C)cc(/N=C/c3[nH]c(C)c(CCCCC)c3C)c2[nH]1 [Perenosin 6]
EC50 NMDG-Cl (by HPTS) [1]: 0.00249 mol%
EC50 (Gra) NMDG-Cl (by HPTS) [1]: 0.00211 mol%
EC50 (OA) NMDG-Cl (by HPTS) [1]: 0.00208 mol%
IC50 (MDA-MB-231 cells; [2]): > 100 µM
IC50 (MDA-MB-231 cells; [3]): 4.2 µM

CCCCCc1cc(/N=C/c2[nH]c(C)cc2C)c2[nH]ccc2c1 [Perenosin 1d]
EC50 NMDG-Cl (by HPTS) [1]: 0.0107 mol% and 0.01073 mol%
EC50 (Gra) NMDG-Cl (by HPTS) [1]: 0.00656 mol%
EC50 (OA) NMDG-Cl (by HPTS) [1]: 0.00925 mol%
IC50 (MDA-MB-231 cells; [2]): 25.2 µM
IC50 (MDA-MB-231 cells; [3]): 16.6 µM

CCCCCc1c(C)[nH]c(/C=N/c2cc(C)cc3cc[nH]c23)c1C [Perenosin 5]
EC50 NMDG-Cl (by HPTS) [1]: 0.00231 mol%
EC50 (Gra) NMDG-Cl (by HPTS) [1]: 0.00095 mol%
EC50 (OA) NMDG-Cl (by HPTS) [1]: 0.00273 mol%
IC50 (MDA-MB-231 cells; [2]): 20.3 µM
IC50 (MDA-MB-231 cells; [3]): 14 µM
